Laboratory results reported in US20200016155A1, “COMPOSITIONS AND TREATMENT OF HEART DEFICIENCY IN NON-HUMAN ANIMALS” (CEVA SANTE ANIMALE, priority 2007, published 2020).
Like-named read-outs stand apart in the source and are kept apart here.

Columns and labels:
[1] = system: aldosterone effect on log([Na+]urinary×10/[K+]urinary); test: Anti-aldosterone activity model (Hofman): urinary log([Na+]x10/[K+]) in dogs given aldosterone; assay type: in vivo, dog; details: for inhibition of the effect of aldosterone on log ([Na+]urinary×10/[K+]urinary): first 6 hours and 12 hours after dosage
Experimental: The model for assessing the anti-aldosterone activity as described by Hofman L. M et al. (1975, The Journal of Pharmacology and Experimental Therapeutics. 194, 450-456) was used. […] A preliminary study was performed in order to determining the ED80 value for the natriuretic effect of aldosterone on its own. […] An elimination period of at least 48 hours was left between each administration.
The dogs described above were allocated to different treatment groups (A, B, C, D, and E) and a rest period was left between treatments.
A negative control group A only received the pharmaceutical excipient. The positive control group B only received 3 μg/kg of aldosterone. […] 200 g food was then given immediately after treatment.
The tubes were centrifuged rapidly at 1500 rpm for 10 minutes (at a temperature of +4° C.±2° C.), and the plasma was distributed in two propylene tubes (1.2 mL). The samples were frozen and kept in the dark at approx. −80° C. On the day of the fest, the bladders of the animals were emptied by catherisation, then 6 and 24 hours after treatment. Also, the urine was collected during the time periods ranging from T0-T6h; T6h-T12h and T12h-T24h.
The sodium and potassium contents in urines were determined using […]. […] According to this method 500 μL plasma were mixed with ethyl acetate (80/20,V/V) as solvents. […] The compounds and the internal standard (i.e. methyl-testosterone) were separated on a Kromasil C18 column. The quantification levels were 10 μg/L for all compounds within +/−14% variation.
E0, Elog ({Na+)urinary×10/[K+}) max dose and ED50 were obtained by nonlinear regression, and n is the Hill coefficient describing the dose effect relation.

human patient = details: cited from earlier work
[2] = system: dogs affected by heart failure; test: Multicentre randomised double-blind placebo-controlled clinical studies in dogs affected by heart failure; assay type: in vivo, dog; details: group of dogs on spironolactone
Experimental: Multicentre, randomised, double-blind placebo-controlled clinical studies were conducted.
For gauging the effects of the treatment, both groups were examined five times, i.e., on the first day of treatment (D1), then on the 84th day (D84), […], 252nd day (D252) and 336th day (D336). This examination consisted of a clinical examination of the dogs, urine and blood analyses, and a radiograph. Moreover, an echocardiograph was taken on days D1, D168 and D336.
Also, the effects of the treatment were assessed on the symptoms such as cough and mobility, as well as on the prevention of symptoms such as dyspnoea, pulmonary edema, and tolerance to effort.

[3] = system: patients affected by severe heart failure; details: 25 mg spironolactone with CEI, ansa diuretics, sometimes digoxin; 822 patients; cited from earlier work
[4] = Plasmatic potassium (kaliemia) measurements during the clinical studies; assay type: in vivo, dog
Experimental: The plasmatic potassium concentrations (mmol/L) were measured during the treatments. […] Only sporadic case of low or moderate hyperkaliemia could be observed and these events were transient. Indeed, these hyperkaliemia events could only be observed a couple of times during examinations, and some of them were present on day D1, before the beginning of the treatment.

[5] = Pharmacokinetic study with 22-14C spironolactone, monkey; assay type: in vivo; details: monkeys, after 4 hour oral administration
[6] = Pharmacokinetic study with 22-14C spironolactone, rat; assay type: in vivo; details: rats, after 4 hour oral administration
[7] = Pharmacokinetic study with 22-14C spironolactone, dog; assay type: in vivo; details: dogs, after 4 hour oral administration

C[C@]12CCC(=O)C=C1CC[C@@H]1[C@@H]2[C@@H](O)C[C@]2(C=O)[C@@H](C(=O)CO)CC[C@@H]12 [aldosterone]
E0 (control group) ([1]; basic effect after aldosterone on its own (positive control), 0 to 6 hours): 0.527

CC(=O)S[C@@H]1CC2=CC(=O)CC[C@]2(C)[C@H]2CC[C@@]3(C)[C@@H](CC[C@@]34CCC(=O)O4)[C@H]12 [spironolactone, 7α-acetylthio-3-oxo-17α-pregn-4-ene-21,17-carbolactone]
Therapeutic effect in human (human patient; 12.5 mg/day): Significant reduction in morbidity/ | Therapeutic effect in human (human patient; 25 mg/day): Significant reduction in morbidity/ | Therapeutic effect in human (human patient; 50 mg/day): Significant reduction in morbidity/ | Therapeutic effect in human (human patient; 75 mg/day): Significant reduction in morbidity/ | clinical symptoms [2]: improved symptoms such as cough and mobility | dead in the spironolactone group, percentage [3]: 35% | number of dead in the spironolactone group [3]: 284 | variation in kaliemia ([4]; 2 mg/kg/day, dogs): did not cause any variation in kaliemia or only low transient variations in kaliemia | Low and transient hyperkaliemia (5.9 to 6.4 mmol/L), cases ([4]; 2-month clinical study (4 analyses)): 3 | Low and transient hyperkaliemia (5.9 to 6.4 mmol/L), cases ([4]; 3-month clinical study (6 analyses)): 5 | Low and transient hyperkaliemia (5.9 to 6.4 mmol/L), cases ([4]; 12-month clinical study (5 analyses)): 3 | progression of average plasmatic potassium (kaliemia) ([4]; FIG. 9, spironolactone 2 mg/kg/day + CEI): stable kaliemia | natriuretic responses ([1]; 0.8 mg/kg): no effect on certain dogs | natriuretic responses ([1]; 2 mg/kg): completely reversed | inhibition of the effect of aldosterone on log ([Na+]urinary×10/[K+]urinary) ([1]; 2 mg/kg): complete reversal of the effect | natriuretic responses ([1]; 8 mg/kg): other increases in the elimination of Na were observed | inhibition of the effect of aldosterone on log ([Na+]urinary×10/[K+]urinary) ([1]; 8 mg/kg): complete reversal of the effect | E(0.8 mg/kg)−E0 ([1]; dose 0.8 mg/kg): 0.3233 | restoring of the effect ([1]; dose 0.8 mg/kg): 57% | E(2 mg/kg) ([1]; dose approx. 2 mg/kg): 0.4933 | restoring of the effect ([1]; dose approx. 2 mg/kg): 88% | log ([Na+]urinary×10/[K+]urinary), average ([1]; urine collected 0 to 6 hours after administration of spironolactone, from 0.70±0.22): 1.14±0.18 | plasma radioactivity percentage [5]: 33% | plasma radioactivity percentage [6]: 66% | plasma radioactivity percentage [7]: 76%
